Assay results reported in US12304905B2, “Pharmaceutical salts of benzothiazol compounds, polymorphs and methods for preparation thereof” (priority 2019, dated 2025).
In brackets after ≈: the same amount, converted by molar mass. Where two headings read alike, the source gives them in different places.

Key:
Format in all cases: physicochemical
[1] = Dynamic Vapor Sorption (DVS) of free base
Experimental: Samples (˜10 mg) were transferred into a DVS instrument and recorded the weight change with respect to the atmospheric humidity at 25° C. using the following parameters: • Equilibrium: dm/dt: 0.01%/min. (for min: 10 min and max: 180 min). • Drying: 0% RH for 120 min • RH (%) measurement step: 10% • RH (%) measurement step scope: 0-90-0% (6) Proton Nuclear Magnetic Resonance (1H NMR) • 400 MHz Bruker with DMSO-d6 or MeOH-d4 solvents • Temperature: 27° C.
(1S,2S)-2-fluoro-N-(6-(4-methylpyridin-3-yl)benzo[d]thiazol-2-yl)cyclopropane-1-carboxamide free base appears as light yellow powder. Subsequently, the physical and thermal properties of free base were characterized. […] This free base form was named as Pattern A.

[2] = Solubility test of free base in solvents
Experimental: About 4 mg of (1S,2S)-2-fluoro-N-(6-(4-methylpyridin-3-yl)benzo[d]thiazol-2-yl)cyclopropane-1-carboxamide was weighed into a 2.0 mL glass vial and then selected solvents was added in the vial stepwise until all the solid was dissolved. The experiment was conducted by manual dilution combined with visual observation at 25° C. and 50° C. The total volume of solvent added was recorded.

[3] = Solubility test of free base in bio-relevant media and buffers; details: for solubility at 24 h: thermodynamic from solid
Experimental: About 5 mg starting free base were weighed in 2 mL vials. Then 1.0 mL biorelevant media (SGF, FaSSIF and FeSSIF) and buffers were added into the vials. All the vials were placed on the thermo-mixer and kept at 37° C. (700 r/m in). After shaking at 37° C. for 24 hrs, mother liquids obtained by filtration were analyzed by HPLC directly or after being diluted by ACN/water for 20-40 times.

With `Cc1ccncc1-c1ccc2nc(NC(=O)[C@@H]3C[C@@H]3F)sc2c1` [free base, (1S,2S)-2-fluoro-N-(6-(4-methylpyridin-3-yl)benzo[d]thiazol-2-yl)cyclopropane-1-carboxamide] the “Hygroscopicity (DVS)” value [1] was “Hygroscopic”, the “DVS (ΔW %, 80% RH)” value ([1]; 25° C., 80% RH) was 2.30% and the “Form change (Yes/No, XRPD)” value ([1]; XRPD, listed after DVS) was “(No)”. The solubility ([2]; aqueous with cosolvent or surfactant or cyclodextrin, thermodynamic from solid, Acetone/H2O (1/1, v/v), 25° C., read-out: Solubility) was less than 5 mg/mL, the solubility ([2]; aqueous with cosolvent or surfactant or cyclodextrin, thermodynamic from solid, Acetone/H2O (1/1, v/v), 50° C., read-out: Solubility) was less than 5 mg/mL and the solubility ([2]; aqueous with cosolvent or surfactant or cyclodextrin, thermodynamic from solid, EtOH/H2O (1/1, v/v), 25° C., read-out: Solubility) was less than 5 mg/mL. For the same compound, the solubility ([2]; aqueous with cosolvent or surfactant or cyclodextrin, thermodynamic from solid, EtOH/H2O (1/1, v/v), 50° C., read-out: Solubility) was less than 5 mg/mL, the solubility ([2]; in DMF and DMSO) was “relatively high solubility” and the solubility ([2]; in mostly common use solvents) was “relatively low solubility”. The solubility ([2]; organic solvent or mixture, thermodynamic from solid, 1,4-dioxane, 25° C., read-out: Solubility) was less than 5 mg/mL, the solubility ([2]; organic solvent or mixture, thermodynamic from solid, 1,4-dioxane, 50° C., read-out: Solubility) was 7 to 10 mg/mL (≈ 21.4 to 30.5 mM) and the solubility ([2]; organic solvent or mixture, thermodynamic from solid, 2-Propanol (IPA), 25° C., read-out: Solubility) was less than 5 mg/mL. The solubility ([2]; organic solvent or mixture, thermodynamic from solid, 2-Propanol (IPA), 50° C., read-out: Solubility) was less than 5 mg/mL, the solubility ([2]; organic solvent or mixture, thermodynamic from solid, Acetone, 25° C., read-out: Solubility) was less than 5 mg/mL and the solubility ([2]; organic solvent or mixture, thermodynamic from solid, Acetone, 50° C., read-out: Solubility) was less than 5 mg/mL. The solubility ([2]; organic solvent or mixture, thermodynamic from solid, Acetonitrile (ACN), 25° C., read-out: Solubility) was less than 5 mg/mL, the solubility ([2]; organic solvent or mixture, thermodynamic from solid, Acetonitrile (ACN), 50° C., read-out: Solubility) was less than 5 mg/mL and the solubility ([2]; organic solvent or mixture, thermodynamic from solid, Dichloromethane (DCM), 25° C., read-out: Solubility) was less than 5 mg/mL. For the same compound, the solubility ([2]; organic solvent or mixture, thermodynamic from solid, Dimethylsulfoxide (DMSO), 25° C., read-out: Solubility) was greater than 100 mg/mL, the solubility ([2]; organic solvent or mixture, thermodynamic from solid, Ethyl acetate (EtOAc), 25° C., read-out: Solubility) was less than 5 mg/mL and the solubility ([2]; organic solvent or mixture, thermodynamic from solid, Ethyl acetate (EtOAc), 50° C., read-out: Solubility) was less than 5 mg/mL. It also gave a solubility ([2]; organic solvent or mixture, thermodynamic from solid, Ethyl alcohol (EtOH), 25° C., read-out: Solubility) of less than 5 mg/mL, a solubility ([2]; organic solvent or mixture, thermodynamic from solid, Ethyl alcohol (EtOH), 50° C., read-out: Solubility) of less than 5 mg/mL and a solubility ([2]; organic solvent or mixture, thermodynamic from solid, Heptane, 25° C., read-out: Solubility) of less than 5 mg/mL. It also gave a solubility ([2]; organic solvent or mixture, thermodynamic from solid, Heptane, 50° C., read-out: Solubility) of less than 5 mg/mL, a solubility ([2]; organic solvent or mixture, thermodynamic from solid, Isopropyl acetate (IPAc), 25° C., read-out: Solubility) of less than 5 mg/mL and a solubility ([2]; organic solvent or mixture, thermodynamic from solid, Isopropyl acetate (IPAc), 50° C., read-out: Solubility) of less than 5 mg/mL. The solubility ([2]; organic solvent or mixture, thermodynamic from solid, Methanol (MeOH), 25° C., read-out: Solubility) was less than 5 mg/mL, the solubility ([2]; organic solvent or mixture, thermodynamic from solid, Methanol (MeOH), 50° C., read-out: Solubility) was 5 to 7 mg/mL (≈ 15.3 to 21.4 mM) and the solubility ([2]; organic solvent or mixture, thermodynamic from solid, Methyl ethyl ketone (MEK), 25° C., read-out: Solubility) was less than 5 mg/mL. The solubility ([2]; organic solvent or mixture, thermodynamic from solid, Methyl ethyl ketone (MEK), 50° C., read-out: Solubility) was less than 5 mg/mL, the solubility ([2]; organic solvent or mixture, thermodynamic from solid, Methyl isobutyl ketone (MIBK), 25° C., read-out: Solubility) was less than 5 mg/mL and the solubility ([2]; organic solvent or mixture, thermodynamic from solid, Methyl isobutyl ketone (MIBK), 50° C., read-out: Solubility) was less than 5 mg/mL. For the same compound, the solubility ([2]; organic solvent or mixture, thermodynamic from solid, Methyl tert-butyl ether (MtBE), 25° C., read-out: Solubility) was less than 5 mg/mL, the solubility ([2]; organic solvent or mixture, thermodynamic from solid, Methyl tert-butyl ether (MtBE), 50° C., read-out: Solubility) was less than 5 mg/mL and the solubility ([2]; organic solvent or mixture, thermodynamic from solid, N,N-Dimethylformamide (DMF), 25° C., read-out: Solubility) was 67 to 100 mg/mL (≈ 205 to 305 mM). For the same compound, the solubility ([2]; organic solvent or mixture, thermodynamic from solid, N,N-Dimethylformamide (DMF), 50° C., read-out: Solubility) was greater than 100 mg/mL, the solubility ([2]; organic solvent or mixture, thermodynamic from solid, Tetrahydrofuran (THF), 25° C., read-out: Solubility) was 8 to 10 mg/mL (≈ 24.4 to 30.5 mM) and the solubility ([2]; organic solvent or mixture, thermodynamic from solid, Tetrahydrofuran (THF), 50° C., read-out: Solubility) was 9 to 13 mg/mL (≈ 27.5 to 39.7 mM). For the same compound, the solubility ([2]; organic solvent or mixture, thermodynamic from solid, Toluene, 25° C., read-out: Solubility) was less than 5 mg/mL, the solubility ([2]; organic solvent or mixture, thermodynamic from solid, Toluene, 50° C., read-out: Solubility) was less than 5 mg/mL and the solubility ([2]; thermodynamic from solid, Water, 25° C., read-out: Solubility) was less than 5 mg/mL. The solubility ([2]; thermodynamic from solid, Water, 50° C., read-out: Solubility) was less than 5 mg/mL, the “Final pH value” ([3]; FaSSIF, initial pH 6.52) was 6.50 and the “Final pH value” ([3]; FeSSIF, initial pH 5.07) was 5.09. For the same compound, the “Final pH value” ([3]; SGF, initial pH 1.92) was 2.28, the solubility at 24 h ([3]; aqueous buffer, pH 2.0 buffer, initial pH 1.98, 37° C., 24 hrs) was 2.06 mg/mL (≈ 6.29 mM) and the solubility at 24 h ([3]; aqueous buffer, pH 4.0 buffer, initial pH 4.01, 37° C., 24 hrs) was 0.031 mg/mL (≈ 0.0947 mM). For the same compound, the solubility at 24 h ([3]; aqueous buffer, pH 6.0 buffer, initial pH 5.90, 37° C., 24 hrs) was 0.002 mg/mL (≈ 0.00611 mM), the “Final pH value” ([3]; pH 2.0 buffer, initial pH 1.98) was 2.25 and the “Final pH value” ([3]; pH 4.0 buffer, initial pH 4.01) was 4.05. The “Final pH value” ([3]; pH 6.0 buffer, initial pH 5.90) was 5.88, the “Final pH value” ([3]; pH 8.0 buffer, initial pH 8.04) was 8.08 and the solubility at 24 h ([3]; simulated gastric fluid, SGF, initial pH 1.92, 37° C., 24 hrs) was 2.49 mg/mL (≈ 7.61 mM). The solubility at 24 h ([3]; simulated gastric fluid, in SGF and pH 2.0 buffer, 37° C., called medium solubility) was 2 to 2.5 mg/mL (≈ 6.11 to 7.64 mM), the solubility at 24 h ([3]; FeSSIF, initial pH 5.07, 37° C., 24 hrs) was 0.045 mg/mL (≈ 0.137 mM) and the “Final pH value” ([3]; water) was 8.84.
